Assay results published in patent US9605003B2, “Heterocyclic compounds and uses thereof” (Infinity Pharmaceuticals, Inc., priority 2011, dated 2017).
pEC50, pIC50: −log10 of the molar value.

Legend:
[1] = tested on: Balb/c splenic B cells; assay: B cell activation and proliferation assay (Alamar Blue); assay type: cell-based; conditions: Mus musculus, Less than 100 nanoMolar
Procedure: The ability of one or more subject compounds to inhibit B cell activitation and proliferation is determined according to standard procedures known in the art. For example, an in vitro cellular proliferation assay is established that measures the metabolic activity of live cells. The assay is performed in a 96 well microtiter plate using Alamar Blue reduction. Balb/c splenic B cells are purified over a Ficoll-Paque™ PLUS gradient followed by magnetic cell separation using a MACS B cell Isolation Kit (Miletenyi). Cells are plated in 90 μl at 50,000 cells/well in B Cell Media (RPMI+10% FBS+Penn/Strep+50 μM bME+5 mM HEPES). A compound provided herein is diluted in B Cell Media and added in a 10 μl volume. Plates are incubated for 30 min at 37° C. and 5% CO2 (0.2% DMSO final concentration). A 50 μl B cell stimulation cocktail is then added containing either 10 μg/ml LPS or 5 μg/ml F(ab′)2 Donkey anti-mouse IgM plus 2 ng/ml recombinant mouse IL4 in B Cell Media. Plates are incubated for 72 hours at 37° C. and 5% CO2. A volume of 15 μL of Alamar Blue reagent is added to each well and plates are incubated for 5 hours at 37° C. and 5% CO2. Alamar Blue fluoresce is read at 560Ex/590Em, and IC50 or EC50 values are calculated using GraphPad Prism 5.

[2] = target: T1, PI3Kα (Homo sapiens, UniProt P42336); assay: PI3 Kinase HTRF assay, PI3Kα; assay type: biochemical; conditions: Between 1 μM and 10 μM; read-out: PI3K α IC50
T1 construct: purchased Millipore Corporation 14-602-K
T1 sequence (P42336 whole entry): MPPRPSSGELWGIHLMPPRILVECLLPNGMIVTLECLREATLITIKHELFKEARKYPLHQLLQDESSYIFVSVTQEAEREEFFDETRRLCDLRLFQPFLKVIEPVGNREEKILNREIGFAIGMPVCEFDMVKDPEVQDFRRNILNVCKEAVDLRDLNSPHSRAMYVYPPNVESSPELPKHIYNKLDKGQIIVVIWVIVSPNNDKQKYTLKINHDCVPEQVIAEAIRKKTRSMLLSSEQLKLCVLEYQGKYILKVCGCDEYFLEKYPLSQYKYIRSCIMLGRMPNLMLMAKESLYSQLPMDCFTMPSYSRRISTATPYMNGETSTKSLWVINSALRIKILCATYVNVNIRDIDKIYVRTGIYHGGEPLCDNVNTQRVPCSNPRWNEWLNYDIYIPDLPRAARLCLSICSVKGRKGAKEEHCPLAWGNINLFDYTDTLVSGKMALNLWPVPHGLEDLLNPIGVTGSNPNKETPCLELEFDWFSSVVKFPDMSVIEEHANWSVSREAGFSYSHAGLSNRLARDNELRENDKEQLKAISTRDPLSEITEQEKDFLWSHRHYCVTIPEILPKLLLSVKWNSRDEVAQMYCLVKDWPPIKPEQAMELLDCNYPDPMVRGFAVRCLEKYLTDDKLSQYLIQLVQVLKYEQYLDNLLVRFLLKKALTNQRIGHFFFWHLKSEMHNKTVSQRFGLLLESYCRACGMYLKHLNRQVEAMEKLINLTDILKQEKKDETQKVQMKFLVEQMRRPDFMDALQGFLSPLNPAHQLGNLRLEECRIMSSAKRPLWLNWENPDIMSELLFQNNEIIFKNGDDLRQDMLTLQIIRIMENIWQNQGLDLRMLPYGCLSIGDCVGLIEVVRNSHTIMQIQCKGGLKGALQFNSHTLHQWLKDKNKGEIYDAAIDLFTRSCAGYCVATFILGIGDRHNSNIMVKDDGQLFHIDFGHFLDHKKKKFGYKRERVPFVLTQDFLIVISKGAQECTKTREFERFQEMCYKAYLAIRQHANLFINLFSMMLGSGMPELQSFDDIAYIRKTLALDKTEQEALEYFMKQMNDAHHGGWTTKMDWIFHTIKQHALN
T1 sequence (P27986 whole entry partner): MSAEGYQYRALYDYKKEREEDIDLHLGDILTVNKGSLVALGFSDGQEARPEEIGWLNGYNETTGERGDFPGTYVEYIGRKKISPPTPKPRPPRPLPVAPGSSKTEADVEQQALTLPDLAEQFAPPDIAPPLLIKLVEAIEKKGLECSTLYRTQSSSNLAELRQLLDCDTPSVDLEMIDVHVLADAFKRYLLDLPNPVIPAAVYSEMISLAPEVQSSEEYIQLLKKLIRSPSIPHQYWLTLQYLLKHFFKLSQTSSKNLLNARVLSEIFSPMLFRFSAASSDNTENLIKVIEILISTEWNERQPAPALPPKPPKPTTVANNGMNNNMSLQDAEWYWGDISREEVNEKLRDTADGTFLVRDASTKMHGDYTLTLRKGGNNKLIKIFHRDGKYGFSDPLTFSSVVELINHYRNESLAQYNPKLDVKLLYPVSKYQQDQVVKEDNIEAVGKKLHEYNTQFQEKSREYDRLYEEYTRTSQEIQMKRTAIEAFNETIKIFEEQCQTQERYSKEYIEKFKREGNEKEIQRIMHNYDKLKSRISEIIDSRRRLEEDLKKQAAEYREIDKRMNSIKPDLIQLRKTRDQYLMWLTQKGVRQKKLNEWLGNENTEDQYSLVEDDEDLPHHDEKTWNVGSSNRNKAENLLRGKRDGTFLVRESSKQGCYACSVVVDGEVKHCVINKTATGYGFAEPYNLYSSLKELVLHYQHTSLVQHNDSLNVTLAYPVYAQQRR
Description: (§1) A PI3-Kinase HTRF® assay kit (cat No. 33-016) purchased from Millipore Corporation was used to screen compounds provided herein. This assay used specific, high affinity binding of the GRP1 pleckstrin homology (PH) domain to PIP3, the product of a Class 1A or 1B PI3 Kinase acting on its physiological substrate PIP2. During the detection phase of the assay, a complex was generated between the GST-tagged PH domain and biotinylated short chain PIP3. The biotinylated PIP3 and the GST-tagged PH domain recruited fluorophores (Streptavidin-Allophycocyanin and Europium-labeled anti-GST respectively) to form the fluorescence resonance energy transfer (FRET) architecture, generating a stable time-resolved FRET signal. The FRET complex was disrupted in a competitive manner by non-biotinylated PIP3, a product formed in the PI3 Kinase assay.
(§2) PI3 Kinase α, β, γ and δ activity was assayed using the PI3 Kinase HTRF® assay kit (catalogue No. 33-016) purchased from Millipore Corporation. Purified recombinant PI3Kα (catalogue No. 14-602-K), PI3Kβ (catalogue No. 14-603-K), PI3Kγ (catalogue No. 14-558-K) and PI3Kδ (catalogue No. 14-604-K) were obtained from Millipore Corporation. Purified recombinant PI3K enzyme was used to catalyze the phosphorylation of phosphatidylinositol 4,5-bisphosphate (PIP2 at 10 μM) to phosphatidylinositol 3,4,5-trisphosphate (PIP3) in the presence of 10 μM ATP. The assay was carried out in 384-well format and detected using a Perkin Elmer EnVision Xcite Multilabel Reader. Emission ratios were converted into percent inhibitions and imported into GraphPad Prism software. The concentration necessary to achieve inhibition of enzyme activity by 50% (IC50) was calculated using concentrations ranging from 20 μM to 0.1 nM (12-point curve). IC50 values were determined using a nonlinear regression model available in GraphPad Prism 5.

[3] = target: T2, PI3Kβ (Homo sapiens, UniProt P42338); assay: PI3 Kinase HTRF assay, PI3Kβ; assay type: biochemical; conditions: Between 1 μM and 10 μM; read-out: PI3K β IC50
T2 construct: purchased Millipore Corporation 14-603-K
T2 sequence (P42338 whole entry): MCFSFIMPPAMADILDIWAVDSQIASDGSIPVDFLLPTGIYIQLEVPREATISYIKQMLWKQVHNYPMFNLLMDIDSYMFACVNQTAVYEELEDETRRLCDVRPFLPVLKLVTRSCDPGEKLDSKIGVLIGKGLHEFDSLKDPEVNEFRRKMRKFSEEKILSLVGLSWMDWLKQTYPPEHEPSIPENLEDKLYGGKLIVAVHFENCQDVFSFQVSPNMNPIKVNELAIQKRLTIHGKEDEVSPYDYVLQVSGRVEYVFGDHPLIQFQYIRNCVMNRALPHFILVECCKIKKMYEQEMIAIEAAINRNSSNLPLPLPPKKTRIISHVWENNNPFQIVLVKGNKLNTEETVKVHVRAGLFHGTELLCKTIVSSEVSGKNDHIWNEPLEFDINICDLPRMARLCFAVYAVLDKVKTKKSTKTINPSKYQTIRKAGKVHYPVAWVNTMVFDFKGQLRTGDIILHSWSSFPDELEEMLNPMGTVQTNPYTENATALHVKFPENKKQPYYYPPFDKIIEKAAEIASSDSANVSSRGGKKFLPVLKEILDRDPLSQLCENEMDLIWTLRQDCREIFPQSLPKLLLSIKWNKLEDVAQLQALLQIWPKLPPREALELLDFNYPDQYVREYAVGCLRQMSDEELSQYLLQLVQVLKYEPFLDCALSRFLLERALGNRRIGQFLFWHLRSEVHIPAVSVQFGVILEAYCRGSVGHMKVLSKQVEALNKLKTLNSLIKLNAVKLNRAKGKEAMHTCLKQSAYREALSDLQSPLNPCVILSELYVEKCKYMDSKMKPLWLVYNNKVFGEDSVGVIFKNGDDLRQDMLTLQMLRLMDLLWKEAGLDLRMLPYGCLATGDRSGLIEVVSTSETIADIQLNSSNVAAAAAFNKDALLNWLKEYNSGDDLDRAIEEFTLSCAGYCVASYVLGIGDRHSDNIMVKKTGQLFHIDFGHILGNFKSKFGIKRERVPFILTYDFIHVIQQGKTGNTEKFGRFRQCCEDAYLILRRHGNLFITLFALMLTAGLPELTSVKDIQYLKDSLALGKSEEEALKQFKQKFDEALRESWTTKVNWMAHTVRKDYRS
T2 sequence (P27986 2-724 partner limits assumed): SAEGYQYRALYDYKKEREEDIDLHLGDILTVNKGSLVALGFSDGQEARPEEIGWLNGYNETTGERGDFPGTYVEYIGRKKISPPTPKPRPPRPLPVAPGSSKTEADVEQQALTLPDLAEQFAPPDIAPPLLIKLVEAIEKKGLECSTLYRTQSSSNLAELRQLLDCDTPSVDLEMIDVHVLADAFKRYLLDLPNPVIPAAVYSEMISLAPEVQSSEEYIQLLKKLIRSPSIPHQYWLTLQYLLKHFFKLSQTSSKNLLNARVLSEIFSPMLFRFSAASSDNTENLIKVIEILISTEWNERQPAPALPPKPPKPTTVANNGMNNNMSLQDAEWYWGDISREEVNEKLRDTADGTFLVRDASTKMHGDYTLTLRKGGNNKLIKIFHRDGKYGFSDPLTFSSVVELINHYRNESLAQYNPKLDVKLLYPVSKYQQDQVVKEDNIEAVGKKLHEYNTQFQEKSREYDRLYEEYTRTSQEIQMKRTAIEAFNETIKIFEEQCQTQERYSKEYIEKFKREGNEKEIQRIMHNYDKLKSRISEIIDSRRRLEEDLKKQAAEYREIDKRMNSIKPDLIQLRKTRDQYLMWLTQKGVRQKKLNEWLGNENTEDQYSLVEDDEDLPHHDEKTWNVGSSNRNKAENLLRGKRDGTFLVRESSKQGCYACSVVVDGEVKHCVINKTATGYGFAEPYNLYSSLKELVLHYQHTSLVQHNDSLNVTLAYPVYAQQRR
Description: as §1, §2

C[C@H](Nc1ncnc2scnc12)c1cc2cccc(Cl)c2c(=O)n1-c1ccccc1 [Compound 2]
pEC50 [1]: > 7.00

C[C@H](Nc1ncnc2scnc12)c1cc2cccc(Cl)c2c(=O)n1C1CC1 [Compound 8]
pEC50 [1]: > 7.00

C[C@H](Nc1ncnc2scnc12)c1cc2cccc(-c3cnn(C)c3)c2c(=O)n1C1CC1 [Compound 9]
pEC50 [1]: > 7.00

C[C@H](Nc1ncnc2scnc12)c1cc2cccc(-c3ccc(C(F)(F)F)nc3)c2c(=O)n1-c1ccccc1 [Compound 13]
pEC50 [1]: > 7.00

C[C@H](Nc1ncnc2scnc12)c1cc2scc(Cl)c2c(=O)n1-c1ccccc1 [Compound 15]
pIC50 [2]: 5.00 to 6.00

C[C@H](Nc1ncnc2scnc12)c1cc2scc(-c3cnn(C)c3)c2c(=O)n1-c1ccccc1 [Compound 16]
pIC50 [2]: 5.00 to 6.00

C[C@H](Nc1ncnc2scnc12)c1cc2cccc(-c3ccnc(C(F)(F)F)c3)c2c(=O)n1-c1ccccc1 [Compound 17]
pIC50 [3]: 5.00 to 6.00
pIC50 [2]: 5.00 to 6.00

COc1ccc(-c2cccc3cc([C@H](C)Nc4ncnc5scnc45)n(-c4ccccc4)c(=O)c23)cn1 [Compound 18]
pIC50 [3]: 5.00 to 6.00
pIC50 [2]: 5.00 to 6.00

C[C@H](Nc1ncnc2scnc12)c1cc2cccc(-c3cncnc3)c2c(=O)n1-c1ccccc1 [Compound 19]
pIC50 [3]: 5.00 to 6.00
pIC50 [2]: 5.00 to 6.00

Cc1cncc(-c2cccc3cc([C@H](C)Nc4ncnc5scnc45)n(-c4ccccc4)c(=O)c23)c1 [Compound 20]
pIC50 [3]: 5.00 to 6.00

C[C@H](Nc1ncnc2scnc12)c1cc2cccc(-c3cncc(F)c3)c2c(=O)n1-c1ccccc1 [Compound 21]
pEC50 [1]: > 7.00
pIC50 [2]: 5.00 to 6.00

C[C@H](Nc1ncnc2scnc12)c1cc2cccc(-c3ccc(F)c(F)c3)c2c(=O)n1-c1ccccc1 [Compound 22]
pEC50 [1]: > 7.00
pIC50 [2]: 5.00 to 6.00

CC(C)n1cc(-c2cccc3cc([C@H](C)Nc4ncnc5scnc45)n(-c4ccccc4)c(=O)c23)cn1 [Compound 23]
pIC50 [2]: 5.00 to 6.00

CC(C)Cn1cc(-c2cccc3cc([C@H](C)Nc4ncnc5scnc45)n(-c4ccccc4)c(=O)c23)cn1 [Compound 24]
pIC50 [2]: 5.00 to 6.00

CCn1cc(-c2cccc3cc([C@H](C)Nc4ncnc5scnc45)n(-c4ccccc4)c(=O)c23)cn1 [Compound 25]
pIC50 [3]: 5.00 to 6.00
pIC50 [2]: 5.00 to 6.00

C[C@H](Nc1ncnc2scnc12)c1cc2cccc(-c3cn[nH]c3)c2c(=O)n1-c1ccccc1 [Compound 26]
pIC50 [3]: 5.00 to 6.00
pIC50 [2]: 5.00 to 6.00

Cc1cc(-c2cccc3cc([C@H](C)Nc4ncnc5scnc45)n(-c4ccccc4)c(=O)c23)ccn1 [Compound 27]
pIC50 [3]: 5.00 to 6.00

C[C@H](Nc1ncnc2scnc12)c1cc2cccc(-c3cccnc3)c2c(=O)n1-c1ccccc1 [Compound 28]
pIC50 [3]: 5.00 to 6.00
pIC50 [2]: 5.00 to 6.00

CCCn1cc(-c2cccc3cc([C@H](C)Nc4ncnc5scnc45)n(-c4ccccc4)c(=O)c23)cn1 [Compound 29]
pIC50 [3]: 5.00 to 6.00
pIC50 [2]: 5.00 to 6.00

Cc1cc(-c2cccc3cc([C@H](C)Nc4ncnc5scnc45)n(-c4ccccc4)c(=O)c23)cnc1F [Compound 30]
pIC50 [3]: 5.00 to 6.00
pIC50 [2]: 5.00 to 6.00

COc1cccc(-c2cccc3cc([C@H](C)Nc4ncnc5scnc45)n(-c4ccccc4)c(=O)c23)c1 [Compound 31]
pIC50 [3]: 5.00 to 6.00

C[C@H](Nc1ncnc2scnc12)c1cc2cccc(-c3ccncc3)c2c(=O)n1-c1ccccc1 [Compound 33]
pIC50 [3]: 5.00 to 6.00

C[C@H](Nc1ncnc2scnc12)c1cc2cccc(-c3ccoc3)c2c(=O)n1-c1ccccc1 [Compound 34]
pIC50 [3]: 5.00 to 6.00

COc1ccccc1-c1cccc2cc([C@H](C)Nc3ncnc4scnc34)n(-c3ccccc3)c(=O)c12 [Compound 35]
pIC50 [3]: 5.00 to 6.00
pIC50 [2]: 5.00 to 6.00

COc1cnccc1-c1cccc2cc([C@H](C)Nc3ncnc4scnc34)n(-c3ccccc3)c(=O)c12 [Compound 36]
pIC50 [3]: 5.00 to 6.00
pIC50 [2]: 5.00 to 6.00

Cc1ncc(-c2cccc3cc([C@H](C)Nc4ncnc5scnc45)n(-c4ccccc4)c(=O)c23)cn1 [Compound 37]
pIC50 [2]: 5.00 to 6.00

COc1cncc(-c2cccc3cc([C@H](C)Nc4ncnc5scnc45)n(-c4ccccc4)c(=O)c23)c1 [Compound 39]
pEC50 [1]: > 7.00

Cc1cc(-c2cccc3cc([C@H](C)Nc4ncnc5scnc45)n(-c4ccccc4)c(=O)c23)cnc1C [Compound 40]
pIC50 [3]: 5.00 to 6.00
pIC50 [2]: 5.00 to 6.00

C[C@H](Nc1ncnc2scnc12)c1cc2cccc(-c3cnc4ccccc4c3)c2c(=O)n1-c1ccccc1 [Compound 41]
pEC50 [1]: > 7.00

Cc1nn(C)cc1-c1cccc2cc([C@H](C)Nc3ncnc4scnc34)n(-c3ccccc3)c(=O)c12 [Compound 42]
pIC50 [3]: 5.00 to 6.00

C[C@H](Nc1ncnc2scnc12)c1cc2cccc(-c3cccc(N(C)C)c3)c2c(=O)n1-c1ccccc1 [Compound 45]
pEC50 [1]: > 7.00
pIC50 [3]: 5.00 to 6.00

C[C@H](Nc1ncnc2scnc12)c1cc2cccc(-c3ccc(N)nc3)c2c(=O)n1-c1ccccc1 [Compound 46]
pEC50 [1]: > 7.00
pIC50 [3]: 5.00 to 6.00

C[C@H](Nc1ncnc2scnc12)c1cc2cccc(-c3ccc(N(C)C)nc3)c2c(=O)n1-c1ccccc1 [Compound 47]
pEC50 [1]: > 7.00
pIC50 [2]: 5.00 to 6.00

C[C@H](Nc1ncnc2scnc12)c1cc2cccc(-c3cnc(N)nc3)c2c(=O)n1-c1ccccc1 [Compound 50]
pEC50 [1]: > 7.00
pIC50 [3]: 5.00 to 6.00

C[C@H](Nc1ncnc2scnc12)c1cc2cccc(-c3ccc(=O)n(C)c3)c2c(=O)n1-c1ccccc1 [Compound 51]
pEC50 [1]: > 7.00
pIC50 [3]: 5.00 to 6.00

COc1cc(-c2cccc3cc([C@H](C)Nc4ncnc5scnc45)n(-c4ccccc4)c(=O)c23)ccn1 [Compound 52]
pEC50 [1]: > 7.00
pIC50 [3]: 5.00 to 6.00

C[C@H](Nc1ncnc2scnc12)c1cc2cccc(-c3cnc4c(c3)CCCO4)c2c(=O)n1-c1ccccc1 [Compound 54]
pEC50 [1]: > 7.00
pIC50 [3]: 5.00 to 6.00

C[C@H](Nc1ncnc2scnc12)c1cc2cccc(-c3cnc4ccoc4c3)c2c(=O)n1-c1ccccc1 [Compound 55]
pEC50 [1]: > 7.00
pIC50 [3]: 5.00 to 6.00

C[C@H](Nc1ncnc2scnc12)c1cc2cccc(-c3cnc4nccnc4c3)c2c(=O)n1-c1ccccc1 [Compound 57]
pEC50 [1]: > 7.00

C[C@H](Nc1ncnc2scnc12)c1cc2cccc(-c3ccc(N)nc3)c2c(=O)n1C1CC1 [Compound 63]
pEC50 [1]: > 7.00

COc1cncc(-c2cccc3cc([C@H](C)Nc4ncnc5scnc45)n(C4CC4)c(=O)c23)c1 [Compound 64]
pEC50 [1]: > 7.00

C[C@H](Nc1ncnc2scnc12)c1cc2cccc(Cl)c2c(=O)n1CCN1CCCC1 [Compound 68]
pEC50 [1]: > 7.00

Cc1ccnc2cc(C(C)Nc3ncnc4scnc34)n(-c3ccccc3)c(=O)c12 (stereo not shown) [Compound 70]
pIC50 [3]: 5.00 to 6.00

C[C@H](Nc1ncnc2scnc12)c1cc2ccccc2c(=O)n1-c1ccccc1 [Compound 71]
pIC50 [3]: 5.00 to 6.00
pIC50 [2]: 5.00 to 6.00

C[C@H](Nc1ncnc2scnc12)c1cc2cccc(Cl)c2c(=O)n1-c1cccc(C(F)(F)F)c1 [Compound 73]
pIC50 [3]: 5.00 to 6.00

C[C@H](Nc1nc(Cl)nc2scnc12)c1cc2cccc(-c3cnn(C)c3)c2c(=O)n1-c1ccccc1 [Compound 75]
pIC50 [3]: 5.00 to 6.00
pIC50 [2]: 5.00 to 6.00

C[C@H](Nc1ccnc2scnc12)c1cc2cccc(-c3cnn(C)c3)c2c(=O)n1-c1ccccc1 [Compound 91]
pIC50 [3]: 5.00 to 6.00
pIC50 [2]: 5.00 to 6.00

COc1ncc(-c2cccc3cc([C@H](C)Nc4ncnc5scnc45)n(-c4ccccc4)c(=O)c23)s1 [Compound 93]
pEC50 [1]: > 7.00
pIC50 [3]: 5.00 to 6.00
